The results in this text go back to article PMC4706877, “Antibacterial and Cytotoxic Activity of Compounds Isolated from Flourensia oolepis” (Evidence-based Complementary and Alternative Medicine : eCAM, 2015).

The structures appear in SMILES notation. Converted amounts (≈) assume the structure as drawn. Where a name gives a salt, the structure may show the parent alone. Read-outs that look alike come from different tables or passages of the source.

For orientation: MIC means the lowest concentration found to suppress growth. Higher therefore signals a need for much substance. One may read the MBC as the lowest tested concentration that kills the bacteria rather than only halting them. One may read the IC50 as the point on the concentration scale where inhibition reaches its midpoint.

Assay [1] has as its system Enterococcus faecalis (ATCC 29212). The assay is described as follows: Agar dilution MIC / MBC. In kind it is cell-based. The conditions noted are these: ATCC29212, E. faecalis; for MIC: agar dilution, 24 h; for MBC: value in parentheses. As for the experimental part: (§1) This isolate was identified by conventional biochemical assays and by the commercial system API20E (bioMérieux SA, Mercy L'Etoile, France). Antimicrobial resistances were determined by disk diffusion susceptibility testing (Kirby-Bauer Method) according to CLSI [15]. Bacterial suspensions were prepared on sterile saline from each organism grown overnight. Turbidity was spectrophotometrically adjusted to the McFarland 0.5 standard. Dilutions were carried out with sterile saline to give an adjusted concentration of 1.5 × 10^7 colony-forming units/mL.
(§2) Three independent experiments were carried out. […] For reading, visual observations were carried out.

In assay [2] the test system is Escherichia coli (ATCC 25922). Briefly: Agar dilution MIC / MBC. In kind it is cell-based. The conditions noted are these: ATCC25922, E. coli; for MIC: agar dilution, 24 h; for MBC: value in parentheses. The procedure:
as §1, §2
(In agar dilution the substance is mixed into plates at graded concentrations.)

Assay [3] has as its system Pseudomonas aeruginosa (ATCC 27853). Briefly: Agar dilution MIC / MBC. The note with it: ATCC27853, P. aeruginosa; for MIC: agar dilution, 24 h; for MBC: value in parentheses. In kind it is cell-based. The procedure:
as §1, §2

The test system of assay [4] is Staphylococcus aureus subsp. aureus (ATCC 6538). Briefly: Agar dilution MIC / MBC. The class given is cell-based. The conditions noted are these: Staphylococcus aureus, ATCC6538, S. aureus; for MIC: agar dilution, 24 h; for MBC: value in parentheses, read-out: MBC. As for the experimental part:
as §1, §2

Assay [5] deals with tetracycline, erythromycin, and polymyxin-resistant Proteus mirabilis (Pr2921). The assay is described as follows: Agar dilution MIC / MBC. The conditions noted are these: P. mirabilis; for MIC: agar dilution, 24 h; for MBC: value in parentheses. In kind it is cell-based. As for the experimental part:
as §1, §2

The test system of assay [6] is CCRF-CEM acute lymphoblastic leukemia cells. The assay is described as follows: MTT cell proliferation assay. In kind it is cell-based, human. The procedure: (§3) The HEK293T non-tumor derived cell line and human isolated mononuclear cells (PBMC) were also tested. […] Cells were cultured at 37°C in a 5% CO2 humidified environment.
(§4) To investigate the cytotoxic potential of the isolated compounds, the MTT colorimetric assay was performed. […] The compounds were evaluated at a final maximum concentration of 100 μM. After 72 hours, 20 μL of 5 mg/mL solution of MTT in sterile PBS was added to each well and further incubated for 4 h. Then, the supernatants were removed and replaced with 100 μL DMSO to solubilize the resulting purple formazan crystals produced from metabolically viable cells. Absorbance was measured with an iMark micro-plate reader (Bio-Rad, USA) at 595 nm. Two wells were used for each concentration of the products assayed and three independent experiments were performed. […] The percentage of cytotoxic activity of the assayed compounds was determined by the following formula: cytotoxicity (%) = [1 − (optical density of treated cells − optical density DMSO)/(optical density of ethanol control cells − optical density DMSO)] × 100.
(§5) Data were analyzed by one-way analysis of variance (ANOVA) and means were compared using Bonferroni's comparison test, with p ≤ 0.05 considered as statistically significant.
A general note: Formazan colour is commonly taken as a measure of viable cells.

The subject of assay [7] is K562 chronic myeloid leukemia cells. Briefly: MTT cell proliferation assay. The class given is cell-based, human. The note with it: Homo sapiens, K562, MTT, 72 h, read-out: IC50 values and 95% confidence limits (lower, upper). As for the experimental part: as §3, §4, §5
Assay [8] relates to CEM/ADR5000 cells (MDR, P-glycoprotein overexpressing). Briefly: cells. In kind it is cell-based, human. The conditions noted are these: for IC50: Homo sapiens, ADR5000, 72 h, CEM/ADR5000, MTT, 72 h, read-out: IC50 values and 95% confidence limits (lower, upper). As for the experimental part:
as §3
(§6) The latter concentration was then used for maintenance of the cells. Lucena 1 were continuously cultured in the presence of 60 nM DOX. Both cell lines were grown in drug-free medium 3-4 days before the experiments. Overexpression of P-glycoprotein (P-gp) in both MDR variants was verified by flow cytometry using FITC-labeled mouse anti-human P-gp (BD Pharmingen, USA). Cells were subcultured twice a week from frozen stocks and used before the 20th passage. All experiments were performed with cells in the logarithmic growth phase with cell viabilities over 90%, determined by trypan blue staining.
as §4, §5

Assay [9] relates to Lucena 1 cells (MDR, P-glycoprotein overexpressing). The assay is described as follows: cells. In kind it is cell-based, human. The conditions noted are these: for IC50: Homo sapiens, Lucena 1, 72 h, Lucena 1, MTT, 72 h, read-out: IC50 values and 95% confidence limits (lower, upper). As for the experimental part: as §3, §6, §4, §5
For the next assay, the system named is bacteria. The assay is described as follows: Antibacterial test of fractions during bioguided isolation. The conditions noted are these: at 2 mg/mL.
Where [10] appears, read: Homo sapiens; CCRF-CEM; MTT, 72 h; read-out: IC50 values and 95% confidence limits (lower, upper).

Method for bacteria: MICs were determined by the agar dilution test according to CLSI [15] with some modifications [7]. Briefly, the plate count agar medium (PCA, Oxoid Ltd, UK) was added in duplicate to the suitable amount of fraction or pure compound previously dissolved in ethanol. […] After solidification of the agar in 6-well plates (Greiner Bio-One, Germany), 2 μL of each bacterial suspension was placed on the agar surface. Three independent experiments were carried out. […] For reading, visual observations were carried out. Nitro blue tetrazolium (NBT, Sigma-Aldrich CO, USA) solution in saline phosphate buffer (PBS) was applied on one spot for confirmation. Plates containing only the culture medium, with or without the addition of the dissolution solvent, were used as controls. Positive controls with commercial gentamicin sulfate or erythromycin dissolved in sterile water or ethanol, respectively, were simultaneously carried out.
The bactericidal effect was further studied from each concentration of product showing growth inhibition. […] At the end of this period, the minimum bactericidal concentration (MBC) values, defined as the lowest concentration with absence of turbidity, were recorded.

On to `O=C(/C=C/c1ccc(O)cc1)c1ccc(O)cc1O` [Compound 2, isoliquiritigenin], for which the MIC in assay [1] is 500 µg/mL (≈ 1950 µM); in assay [2], > 500 µg/mL; in assay [3], > 500 µg/mL; in [4] it was 250 µg/mL (≈ 976 µM); in assay [5], > 500 µg/mL. Also, the MBC was > 500 µg/mL in assay [1]; > 500 µg/mL in [2]; > 500 µg/mL in [3]; 500 µg/mL (≈ 1950 µM) in [4]; > 500 µg/mL in assay [5]. Besides, the IC50 in assay [6] (setting [10]) was 58.1 µM; in [7], > 100 µM; in assay [8] it was 51.9 µM; in assay [9] it was > 100 µM.
In the case of `O=C1C[C@@H](c2ccccc2)Oc2cc(O)cc(O)c21` [Compound 3, pinocembrin], the MIC in assay [1] is 62 µg/mL (≈ 242 µM); in [2], 500 µg/mL (≈ 1950 µM); in assay [3], > 500 µg/mL; in assay [4] it was 15 µg/mL (≈ 58.5 µM); in assay [5] it was > 500 µg/mL. For the same molecule, the MBC in [1] was 125 µg/mL (≈ 488 µM); in [2], 500 µg/mL (≈ 1950 µM); in [3], > 500 µg/mL; in assay [4], 62 µg/mL (≈ 242 µM); in assay [5], > 500 µg/mL. Moreover, the IC50 in assay [6] (setting [10]) is 58.9 µM; in assay [7] it was > 100 µM; in [8] it was 53.5 µM; in [9], > 100 µM. Further, the bactericidal activity entry in the assay with bacteria is given as “bactericidal effects”.
Consider `COc1cc(C2CC(=O)c3ccc(O)cc3O2)ccc1O` (stereo not drawn) [Compound 5, 7,4′-dihydroxy-3′-methoxyflavanone], for which the MIC is 500 µg/mL (≈ 1750 µM) in assay [1]; > 500 µg/mL in assay [2]; > 500 µg/mL in assay [3]; 250 µg/mL (≈ 873 µM) in [4]; > 500 µg/mL in assay [5]. The MBC in assay [1], in [2], in assay [3], in assay [4] and in [5] was > 500 µg/mL throughout. Further, the 50% inhibitory concentration (IC50) in assay [6] (setting [10]) is 24.8 µM; in assay [7], > 100 µM; in [8], 30.4 µM; in assay [9] it was > 100 µM.
On to `COc1cccc2c1C(=O)c1c(O)c3c(c(O)c1C2=O)C[C@@](O)(C(=O)CO)C[C@@H]3O[C@H]1C[C@H](N)[C@H](O)[C@H](C)O1` [Doxorubicin, Doxorubicin hydrochloride, reference compound], for which the IC50 was 0.133 µM in assay [6] (Homo sapiens, CCRF-CEM, 72 h, CCRF-CEM; MTT, 72 h; read-out: IC50 values and 95% confidence limits (lower, upper)); 4.1 µM in assay [7] (K562, 72 h); > 69 µM in assay [8]; > 69 µM in assay [9]. Moreover, the “resistant index (RI) = IC50 resistant cells/IC50 sensitive cells” value in [8] (CEM/ADR5000 vs CCRF-CEM) was ≥ 518.8; in [9] it was ≥ 16.8.
`CC[C@H]1OC(=O)[C@H](C)[C@@H](O[C@H]2C[C@@](C)(OC)[C@@H](O)[C@H](C)O2)[C@H](C)[C@@H](O[C@@H]2O[C@H](C)C[C@H](N(C)C)[C@H]2O)[C@](C)(O)C[C@@H](C)C(=O)[C@H](C)[C@@H](O)[C@]1(C)O` [Erythromycin, erythromycin, reference compound]: the MIC stood at 1 µg/mL (≈ 1.36 µM) in [1]; 125 µg/mL (≈ 170 µM) in assay [2]; 62 µg/mL (≈ 84.5 µM) in [3]; 1 µg/mL (≈ 1.36 µM) in assay [4]; 500 µg/mL (≈ 681 µM) in assay [5]. For the same molecule, the MBC in [1] was 30 µg/mL (≈ 40.9 µM); in assay [2], > 500 µg/mL; in assay [3], 500 µg/mL (≈ 681 µM); in assay [4] it was 60 µg/mL (≈ 81.8 µM); in assay [5] it was > 500 µg/mL.
As for `CNC(C)C1CCC(N)C(OC2C(N)CC(N)C(OC3OCC(C)(O)C(NC)C3O)C2O)O1` (stereo not drawn) [Gentamicin, Gentamicin sulfate, reference compound], the MIC in assay [1] was found to be 8 µg/mL; in assay [2], 4 µg/mL; in assay [3] it was 4 µg/mL; in assay [4], 8 µg/mL; in assay [5], 10 µg/mL. The minimal bactericidal concentration (MBC) in assay [1] came out at 10 µg/mL; in assay [2] it was 8 µg/mL; in assay [3], 4 µg/mL; in assay [4] it was 10 µg/mL; in [5], 10 µg/mL.
